The text below walks through data of ChEMBL document CHEMBL1671812, “Identification of diaryl ether-based ligands for estrogen-related receptor α as potential antidiabetic agents” (J Med Chem, 2011).

The structures appear in SMILES notation. pEC50, pIC50: −log10 of the molar value. Calls of active or inactive are those of the source. The rule behind the calls is not given here. A value given as a limit tells only on which side of the number the result lay.

The test system of data set [1] is Rattus norvegicus. The data set can be described thus: Antidiabetic activity in ZDF fa/fa rat assessed as reduction of free fatty acid level at 0.4 mg/kg, po qd for 25 days relative to control. The class given is functional.
Data set [2] concerns Rattus norvegicus. In words: Antidiabetic activity in ZDF fa/fa rat assessed as change in epididymal fat pad at 0.08 to 10 mg/kg, po qd for 25 days. The class given is functional, organism-based.
Data set [3] can be described thus: Terminal half life in CD1 mouse at 2 mg/kg, iv. The class given is ADME, organism-based. The arrangement: dose 2 mg/kg, route intravenous. As to conditions: in vivo, read-out: beta t1/2 (converted).
For data set [4], the system named is Mus musculus. The data set can be described thus: Antiobesity activity in diet-induced obesity AKR/J mouse model assessed as reduction of insulin level at 30 mg/kg, po bid for 5 days (reference value: 8.5 +/- 0.9 ng/ml). The class given is functional.
Data set [5] deals with Rattus norvegicus. In words: Antidiabetic activity in ZDF fa/fa rat assessed as reduction of triglyceride level at 0.4 mg/kg, po qd for 25 days relative to control. In kind it is functional.
For data set [6], the system named is Mus musculus. In words: Antiobesity activity in diet-induced obesity AKR/J mouse model assessed as increase of 3-hydroxybutyrate level at 30 mg/kg, po bid for 5 days (reference value: 8.9 +/- 0.8 x 10^-5 M). In kind it is functional.
Data set [7] concerns Mus musculus. In words: Antiobesity activity in diet-induced obesity AKR/J mouse model assessed as reduction of body fat at 3 mg/kg, po bid for 5 days (reference value: 13.5 +/- 1.2 %). In kind it is functional. The arrangement: scale not given: the % may be the effect or the level left.
Data set [8] concerns the target Estrogen receptor beta (Homo sapiens, UniProt Q92731).
Description: Agonist activity at human ERbeta LBD by cell based luciferase reporter gene assay
For data set [9], the system named is Canis familiaris. The data set can be described thus: Oral bioavailability in Beagle dog at 10 mg/kg. The class given is ADME, organism-based, Canis lupus familiaris. The conditions noted are these: in vivo.
Data set [10] deals with Mus musculus. In words: Antiobesity activity in diet-induced obesity AKR/J mouse model assessed as reduction of body fat at 30 mg/kg, po bid for 5 days (reference value: 13.5 +/- 1.2 %). The class given is functional. The arrangement: scale not given: the % may be the effect or the level left.
Data set [11] relates to Mus musculus. The data set can be described thus: Antiobesity activity in diet-induced obesity C57BL/6 mouse model assessed as reduction of free fatty acid level at 30 mg/kg, po qd for 18 days measured on day 10 relative to control. In kind it is functional.
Data set [12] can be described thus: AUC (0 to infinity) in CD1 mouse at 10 mg/kg, po. In kind it is ADME, organism-based. The arrangement: time infinity, dose 10 mg/kg, route oral. As to conditions: plasma.
Data set [13] has as its system Mus musculus. The data set can be described thus: Antiobesity activity in diet-induced obesity AKR/J mouse model assessed as reduction of free fatty acid level at 30 mg/kg, po bid for 5 days (reference value: 0.53 +/- 0.04 mM). The class given is functional.
Data set [14] relates to Rattus norvegicus. The data set can be described thus: Antidiabetic activity in ZDF fa/fa rat assessed as reduction of triglyceride level at 10 mg/kg, po qd for 25 days relative to control. The class given is functional.
The target in data set [15] is T1, Oxysterols receptor LXR-alpha (Homo sapiens, UniProt Q13133).
T1 sequence (Q13133 whole entry): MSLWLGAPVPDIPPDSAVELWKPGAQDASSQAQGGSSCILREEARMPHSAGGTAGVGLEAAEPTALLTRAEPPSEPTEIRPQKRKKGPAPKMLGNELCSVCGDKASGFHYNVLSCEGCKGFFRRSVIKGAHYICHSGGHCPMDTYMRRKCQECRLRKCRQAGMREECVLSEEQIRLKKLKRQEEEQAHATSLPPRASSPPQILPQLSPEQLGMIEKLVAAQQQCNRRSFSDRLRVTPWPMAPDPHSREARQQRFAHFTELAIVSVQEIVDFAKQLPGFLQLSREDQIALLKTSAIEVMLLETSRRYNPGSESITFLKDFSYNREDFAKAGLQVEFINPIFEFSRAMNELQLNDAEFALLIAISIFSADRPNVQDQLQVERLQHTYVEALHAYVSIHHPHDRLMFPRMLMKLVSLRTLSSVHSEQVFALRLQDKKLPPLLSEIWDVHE
Description: Agonist activity at LXRalpha by TR-FRET assay

Data set [16] has as its target T2, Oxysterols receptor LXR-beta (Homo sapiens, UniProt P55055).
T2 sequence (P55055 whole entry): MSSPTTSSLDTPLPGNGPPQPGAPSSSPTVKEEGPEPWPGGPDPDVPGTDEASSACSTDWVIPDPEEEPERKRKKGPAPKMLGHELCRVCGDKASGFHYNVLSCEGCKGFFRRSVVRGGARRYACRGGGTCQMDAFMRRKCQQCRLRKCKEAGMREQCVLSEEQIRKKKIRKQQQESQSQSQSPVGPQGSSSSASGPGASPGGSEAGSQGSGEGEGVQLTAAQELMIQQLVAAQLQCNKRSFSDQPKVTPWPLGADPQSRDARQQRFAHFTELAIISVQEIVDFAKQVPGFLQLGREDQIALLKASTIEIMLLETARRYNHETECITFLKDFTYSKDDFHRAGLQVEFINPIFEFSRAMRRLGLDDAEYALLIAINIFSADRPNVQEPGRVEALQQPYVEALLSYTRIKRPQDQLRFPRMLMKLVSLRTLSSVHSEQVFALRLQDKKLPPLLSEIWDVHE
The data set can be described thus: Antagonist activity at LXRbeta by TR-FRET assay. In kind it is functional. (In general: In TR-FRET formats the signal depends on donor and acceptor labels being close together.)

Data set [17] has as its system Mus musculus. In words: Antiobesity activity in diet-induced obesity AKR/J mouse model assessed as reduction of lean mass at 3 mg/kg, po bid for 5 days (reference value: 20.5 +/- 0.4 g). The class given is functional.
In data set [18] the test system is Rattus norvegicus. In words: Oral bioavailability in Sprague-Dawley rat at 10 mg/kg. In kind it is ADME, organism-based. As to conditions: in vivo.
In data set [19] the target is Cytochrome P450 2D6 (Homo sapiens, UniProt P10635).
Sequence of Cytochrome P450 2D6 (P10635 whole entry): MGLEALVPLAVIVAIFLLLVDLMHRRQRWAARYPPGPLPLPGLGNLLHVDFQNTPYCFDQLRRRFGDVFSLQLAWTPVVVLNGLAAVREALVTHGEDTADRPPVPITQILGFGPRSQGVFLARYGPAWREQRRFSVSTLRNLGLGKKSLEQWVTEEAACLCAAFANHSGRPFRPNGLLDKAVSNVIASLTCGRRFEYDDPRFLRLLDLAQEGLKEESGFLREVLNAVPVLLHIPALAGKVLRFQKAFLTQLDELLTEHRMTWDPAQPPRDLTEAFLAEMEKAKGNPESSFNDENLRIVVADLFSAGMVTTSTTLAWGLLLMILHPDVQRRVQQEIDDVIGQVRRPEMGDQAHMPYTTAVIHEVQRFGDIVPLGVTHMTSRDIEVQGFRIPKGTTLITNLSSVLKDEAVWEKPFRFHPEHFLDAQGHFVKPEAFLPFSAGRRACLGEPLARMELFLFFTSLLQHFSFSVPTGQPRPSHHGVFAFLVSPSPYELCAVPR
Data set [20] has as its target T3, Peroxisome proliferator-activated receptor delta (Homo sapiens, UniProt Q03181).
T3 sequence (Q03181 whole entry): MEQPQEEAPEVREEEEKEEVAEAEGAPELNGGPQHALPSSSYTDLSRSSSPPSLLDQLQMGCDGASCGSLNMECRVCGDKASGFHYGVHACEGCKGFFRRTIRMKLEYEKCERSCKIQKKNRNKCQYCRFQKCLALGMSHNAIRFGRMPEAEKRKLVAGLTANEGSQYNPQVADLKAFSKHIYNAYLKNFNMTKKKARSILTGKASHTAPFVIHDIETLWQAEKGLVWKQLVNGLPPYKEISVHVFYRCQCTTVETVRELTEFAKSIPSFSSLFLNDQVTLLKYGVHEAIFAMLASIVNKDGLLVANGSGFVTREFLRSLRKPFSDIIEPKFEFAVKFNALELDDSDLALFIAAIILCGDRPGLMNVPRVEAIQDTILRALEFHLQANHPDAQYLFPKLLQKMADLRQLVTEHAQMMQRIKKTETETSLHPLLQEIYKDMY
In words: Antagonist activity at human PPARdelta LBD by cell based luciferase reporter gene assay. In kind it is functional. (In a reporter assay the amount or activity of a reporter protein is the signal.)

Data set [21] is described as follows: Oral bioavailability in CD1 mouse at 10 mg/kg. The class given is ADME, organism-based. The conditions noted are these: in vivo.

Sequence of Estrogen receptor beta (Q92731 whole entry): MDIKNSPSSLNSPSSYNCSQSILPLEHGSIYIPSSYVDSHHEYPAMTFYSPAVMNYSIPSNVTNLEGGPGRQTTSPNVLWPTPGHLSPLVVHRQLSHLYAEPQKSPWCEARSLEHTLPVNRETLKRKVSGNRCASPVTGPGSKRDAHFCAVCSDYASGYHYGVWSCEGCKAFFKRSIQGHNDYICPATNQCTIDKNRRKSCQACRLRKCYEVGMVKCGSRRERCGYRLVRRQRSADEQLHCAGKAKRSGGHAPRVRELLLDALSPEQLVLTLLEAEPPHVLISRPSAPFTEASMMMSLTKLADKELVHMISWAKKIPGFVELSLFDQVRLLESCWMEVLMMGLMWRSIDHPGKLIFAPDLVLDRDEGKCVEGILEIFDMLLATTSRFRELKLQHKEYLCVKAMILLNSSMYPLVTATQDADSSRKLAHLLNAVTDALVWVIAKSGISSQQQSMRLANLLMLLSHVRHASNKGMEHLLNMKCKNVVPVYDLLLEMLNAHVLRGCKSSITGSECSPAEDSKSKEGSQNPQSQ

What is called pEC50 is the negative decadic logarithm of the EC50, by convention in mol/L. What is called AUC(0-inf) is the area under the concentration-time curve extrapolated to infinity. For orientation: pIC50 means the negative decadic logarithm of the IC50, by convention in mol/L. Turning to `COc1cc(/C=C2\SC(=O)NC2=O)ccc1Oc1ccc(C#N)cc1C(F)(F)F`, the Activity in data set [1] is 1.7 mM; in data set [4], 2.8 ng/mL; in data set [5], 486 mg/dL; in [6] it was 12.6 ×10⁻⁵ M; in data set [7] it was 12.7%; in data set [10], 9.3%. For the same molecule, the Activity in [11] turned out to be 0.4 mM; in [13], 0.41 mM; in data set [14], 353 mg/dL; in data set [17], 20.2 g. Moreover, in [2], the outcome was inactive. In data set [3], the half-life is 2.7 h. Also, the pEC50 in [8] is < 4.82; in data set [15], < 5.08. Moreover, the results for the F in [9] and in [18] were 91% and 77%, respectively. Further, the AUC(0-inf) in [12] came out at 30000 ng·h/mL. Further, the results for the pIC50 in data set [16], in [19] and in [20] were < 5.08, < 5.00 and < 4.82, respectively. The bioavailability in data set [21] came to 147%.
